Test results reported in patent publication US11130752B2, “Aminopyrimidine compound” (Cardurion Pharmaceuticals, LLC, priority 2018, dated 2021).
Where a name gives a salt, the structure may show the parent alone.

Target: T1, human CaMKIIδ (Homo sapiens, UniProt Q13557)
T1 construct: Full-length, glutathione-S-transferase(GST)-tagged, human CaMKIIδ was purchased from Carna Biosciences; purchased Carna Biosciences (CaMKIIδ); Wako Pure Chemical Industries (calmodulin) 02-111
Test: In vitro CaMKII inhibitory activity (binding assay, TR-FRET)
Conditions: Table 1, GST-tagged human CaMKIIδ, activity ranks
Method: Evaluation of In Vitro CaMKII Inhibitory Activity (Binding Assay)
In vitro CaMKIIδ inhibitory activity was evaluated by a binding assay.
Full-length, glutathione-S-transferase(GST)-tagged, human CaMKIIδ was purchased from Carna Biosciences (product #02-111, Kobe, Japan). Full-length bovine calmodulin was purchased from Wako Pure Chemical Industries (Osaka, Japan). Terbium-labeled anti-GST antibody (Tb-anti-GST Ab) was purchased from Life Technologies (Carlsbad, Calif., USA). Boron-dipyrromethene (BODIPY)-labeled probe ligand was synthesized as described below.
Time-Resolved Fluorescence Resonance Energy Transfer (TR-FRET) Assay
All assays were conducted using 384-well, white, flat-bottomed plates (product #784075, Greiner Bio-One, Frickenhausen, Germany) in kinase assay buffer, which consists of 50 mM HEPES pH 7.6, 10 mM MgCl2, 1 mM EGTA, 0.01% Brig-35, 0.1 mM DTT). The fluorescent probe ligand was added at a final concentration of 300 nM to solutions containing 0.21 nM Tb-anti-GST Ab, 1 mM CaCl2, 10 μg/mL calmodulin, and 0.5 nM GST-tagged CaMKIIδ. After shaded incubation of the protein-probe mixture on ice for 30 min, the premix was dispensed in the assay plate including test inhibitors with 4 fold dilution series of eight concentrations. After 1 hr incubation at room temperature, TR-FRET signals were measured in duplicate using an EnVision microplate reader (Perkin Elmer, Waltham, Mass., USA). The solution in each well was excited with a laser (λ=340 nm) reflected by a dichroic mirror (D400/D505 (Perkin Elmer) through an excitation filter (UV (TRF) 340, (Perkin Elmer)), and fluorescence from Tb and BODIPY were detected through two emission filters (CFP 495 (Perkin Elmer) for Tb, Emission 520 (Perkin Elmer) for BODIPY).
The percentage of inhibition of test compounds was calculated according to equation (1) Inhibition(%)=100×(μH−T)/(μH−μL) (1)
Where T is the value of the wells containing test compounds and μH and μL are the mean values of the 0% and 100% inhibition control wells, respectively. The values of the 0 and 100% controls were the signals obtained in the absence and presence of 3 μM its parent compound, respectively. The half maximal inhibitory concentration (IC50) of test compounds was calculated by fitting the data with the logistic equation using XLfit (IDBS, Guildford, UK). The IC50 was classified according to the following activity ranks.

SMILES	IC50
COCCCCOc1nn([C@H]2CC[C@H](N3CCOCC3)CC2)cc1Nc1ncc(-c2ccc(C#N)c(O[C@@H](C)Cn3cnnn3)c2)cn1 [Example 150, 2-(((S)-1-(1H-tetrazol-1-yl)propan-2-yl)oxy)-4-(2-((3-(4-methoxybutoxy)-1-((1r,4r)-4-morpholinocyclohexyl)-1H-pyrazol-4-yl)amino)pyrimidin-5-yl)benzonitrile]	< 10 nM
COCCCCOc1nn([C@H]2CC[C@H](N3CCOCC3)CC2)cc1Nc1ncc(-c2ccc(Cl)c(O[C@@H](C)Cn3cnnn3)c2)cn1 [Example 151, 5-(3-(((S)-1-(1H-tetrazol-1-yl)propan-2-yl)oxy)-4-chlorophenyl)-N-(3-(4-methoxybutoxy)-1-((1r,4r)-4-morpholinocyclohexyl)-1H-pyrazol-4-yl)pyrimidin-2-amine]	< 10 nM
COCCOCCOc1nn([C@H]2CC[C@H](N3C[C@@H](C)O[C@@H](C)C3)CC2)cc1Nc1ncc(-c2ccc(Cl)c(O[C@@H](C)Cn3cnnn3)c2)cn1 [Example 240, 5-(3-(((S)-1-(1H-tetrazol-1-yl)propan-2-yl)oxy)-4-chlorophenyl)-N-(1-((1r,4r)-4-((2S,6R)-2,6-dimethylmorpholino)cyclohexyl)-3-(2-(2-methoxyethoxy)ethoxy)-1H-pyrazol-4-yl)pyrimidin-2-amine hydrochloride]	< 10 nM
CCOCCCOc1nn([C@H]2CC[C@H](N3[C@@H]4CC[C@H]3COC4)CC2)cc1Nc1ncc(-c2ccc(Cl)c(O[C@@H](C)Cn3cnnn3)c2)cn1 [Example 242, 5-(3-(((S)-1-(1H-tetrazol-1-yl)propan-2-yl)oxy)-4-chlorophenyl)-N-(1-((1r,4r)-4-((1R,5S)-3-oxa-8-azabicyclo[3.2.1]octan-8-yl)cyclohexyl)-3-(3-ethoxypropoxy)-1H-pyrazol-4-yl)pyrimidin-2-amine]	< 10 nM
C[C@@H](Cn1cnnn1)Oc1cc(-c2cnc(Nc3cn([C@H]4CC[C@H](N5[C@@H]6CC[C@H]5COC6)CC4)nc3OCCO)nc2)ccc1Cl [Example 243, 2-((4-((5-(3-(((S)-1-(1H-tetrazol-1-yl)propan-2-yl)oxy)-4-chlorophenyl)pyrimidin-2-yl)amino)-1-((1r,4r)-4-((1R,5S)-3-oxa-8-azabicyclo[3.2.1]octan-8-yl)cyclohexyl)-1H-pyrazol-3-yl)oxy)ethan-1-ol]	< 10 nM
C[C@@H](Cn1cnnn1)Oc1cc(-c2cnc(Nc3cn([C@H]4CC[C@H](N5[C@@H]6CC[C@H]5COC6)CC4)nc3OCCO)nc2)ccc1C#N [Example 244, 2-(((S)-1-(1H-tetrazol-1-yl)propan-2-yl)oxy)-4-(2-((1-((1r,4r)-4-((1R,5S)-3-oxa-8-azabicyclo[3.2.1]octan-8-yl)cyclohexyl)-3-(2-hydroxyethoxy)-1H-pyrazol-4-yl)amino)pyrimidin-5-yl)benzonitrile]	< 10 nM
C[C@@H](Cn1cnnn1)Oc1cc(-c2cnc(Nc3cn([C@H]4CC[C@H](N5CCOCC5)CC4)nc3O)nc2)ccc1C#N [Example 461, 2-(((S)-1-(1H-tetrazol-1-yl)propan-2-yl)oxy)-4-(2-((3-hydroxy-1-((1r,4r)-4-morpholinocyclohexyl)-1H-pyrazol-4-yl)amino)pyrimidin-5-yl)benzonitrile]	< 10 nM
C[C@@H](Cn1cnnn1)Oc1cc(-c2cnc(Nc3cn([C@H]4CC[C@H](N5CCOCC5)CC4)nc3O)nc2)ccc1Cl [Example 462, 4-((5-(3-(((S)-1-(1H-tetrazol-1-yl)propan-2-yl)oxy)-4-chlorophenyl)pyrimidin-2-yl)amino)-1-((1r,4r)-4-morpholinocyclohexyl)-1H-pyrazol-3-ol]	< 10 nM

Same assay, conditions: Table 4, GST-tagged human CaMKIIδ, activity ranks

SMILES	IC50
C[C@@H]1CN([C@H]2CC[C@H](n3cc(Nc4ncc(-c5ccc(Cl)c(O[C@@H](C)Cn6cnnn6)c5)cn4)c(OCc4nncn4C)n3)CC2)C[C@H](C)O1 [Example 473, 5-(3-(((S)-1-(1H-tetrazol-1-yl)propan-2-yl)oxy)-4-chlorophenyl)-N-(1-((1r,4r)-4-((2S,6R)-2,6-dimethylmorpholino)cyclohexyl)-3-((4-methyl-4H-1,2,4-triazol-3-yl)methoxy)-1H-pyrazol-4-yl)pyrimidin-2-amine]	< 10 nM
C[C@@H]1CN([C@H]2CC[C@H](n3cc(Nc4ncc(-c5ccc(Cl)c(O[C@@H](C)Cn6cnnn6)c5)cn4)c(OCCCOCCO)n3)CC2)C[C@H](C)O1 [Example 474, 2-(3-((4-((5-(3-(((S)-1-(1H-tetrazol-1-yl)propan-2-yl)oxy)-4-chlorophenyl)pyrimidin-2-yl)amino)-1-((1r,4r)-4-((2S,6R)-2,6-dimethylmorpholino)cyclohexyl)-1H-pyrazol-3-yl)oxy)propoxy)ethan-1-ol]	< 10 nM
C[C@@H]1CN([C@H]2CC[C@H](n3cc(Nc4ncc(-c5ccc(Cl)c(O[C@@H](C)Cn6cnnn6)c5)cn4)c(OCCCO)n3)CC2)C[C@H](C)O1 [Example 475, 3-((4-((5-(3-(((S)-1-(1H-tetrazol-1-yl)propan-2-yl)oxy)-4-chlorophenyl)pyrimidin-2-yl)amino)-1-((1r,4r)-4-((2S,6R)-2,6-dimethylmorpholino)cyclohexyl)-1H-pyrazol-3-yl)oxy)propan-1-ol]	< 10 nM
Cc1ncc(COc2nn([C@H]3CC[C@H](N4C[C@@H](C)O[C@@H](C)C4)CC3)cc2Nc2ncc(-c3ccc(C#N)c(O[C@@H](C)Cn4cnnn4)c3)cn2)s1 [Example 476, 2-(((S)-1-(1H-tetrazol-1-yl)propan-2-yl)oxy)-4-(2-((1-((1r,4r)-4-((2S,6R)-2,6-dimethylmorpholino)cyclohexyl)-3-((2-methylthiazol-5-yl)methoxy)-1H-pyrazol-4-yl)amino)pyrimidin-5-yl)benzonitrile]	< 10 nM
COC(C)(C)CCOc1nn([C@H]2CC[C@H](N3C[C@@H](C)O[C@@H](C)C3)CC2)cc1Nc1ncc(-c2ccc(C#N)c(O[C@@H](C)Cn3cnnn3)c2)cn1 [Example 478, 2-(((S)-1-(1H-tetrazol-1-yl)propan-2-yl)oxy)-4-(2-((1-((1r,4r)-4-((2S,6R)-2,6-dimethylmorpholino)cyclohexyl)-3-(3-methoxy-3-methylbutoxy)-1H-pyrazol-4-yl)amino)pyrimidin-5-yl)benzonitrile]	< 10 nM
C[C@@H]1CN([C@H]2CC[C@H](n3cc(Nc4ncc(-c5ccc(C#N)c(O[C@@H](C)Cn6cnnn6)c5)cn4)c(OCC4COC4)n3)CC2)C[C@H](C)O1 [Example 479, 2-(((S)-1-(1H-tetrazol-1-yl)propan-2-yl)oxy)-4-(2-((1-((1r,4r)-4-((2S,6R)-2,6-dimethylmorpholino)cyclohexyl)-3-(oxetan-3-ylmethoxy)-1H-pyrazol-4-yl)amino)pyrimidin-5-yl)benzonitrile]	< 10 nM
C[C@@H]1CN([C@H]2CC[C@H](n3cc(Nc4ncc(-c5ccc(Cl)c(O[C@@H](C)Cn6cnnn6)c5)cn4)c(OCC4COC4)n3)CC2)C[C@H](C)O1 [Example 480, 5-(3-(((S)-1-(1H-tetrazol-1-yl)propan-2-yl)oxy)-4-chlorophenyl)-N-(1-((1r,4r)-4-((2S,6R)-2,6-dimethylmorpholino)cyclohexyl)-3-(oxetan-3-ylmethoxy)-1H-pyrazol-4-yl)pyrimidin-2-amine]	< 10 nM
C[C@@H]1CN([C@H]2CC[C@H](n3cc(Nc4ncc(-c5ccc(Cl)c(O[C@@H](C)Cn6cnnn6)c5)cn4)c(OCCO)n3)CC2)C[C@H](C)O1 [Example 481, 2-((4-((5-(3-(((S)-1-(1H-tetrazol-1-yl)propan-2-yl)oxy)-4-chlorophenyl)pyrimidin-2-yl)amino)-1-((1r,4r)-4-((2S,6R)-2,6-dimethylmorpholino)cyclohexyl)-1H-pyrazol-3-yl)oxy)ethan-1-ol]	< 10 nM
C[C@@H]1CN([C@H]2CC[C@H](n3cc(Nc4ncc(-c5ccc(Cl)c(O[C@@H](C)Cn6cnnn6)c5)cn4)c(OC[C@@H](C)O)n3)CC2)C[C@H](C)O1 [Example 482, (R)-1-((4-((5-(3-(((S)-1-(1H-tetrazol-1-yl)propan-2-yl)oxy)-4-chlorophenyl)pyrimidin-2-yl)amino)-1-((1r,4r)-4-((2S,6R)-2,6-dimethylmorpholino)cyclohexyl)-1H-pyrazol-3-yl)oxy)propan-2-ol]	< 10 nM
C[C@@H]1CN([C@H]2CC[C@H](n3cc(Nc4ncc(-c5ccc(C#N)c(O[C@@H](C)Cn6cnnn6)c5)cn4)c(OCC4CCOCC4)n3)CC2)C[C@H](C)O1 [Example 483, 2-(((S)-1-(1H-tetrazol-1-yl)propan-2-yl)oxy)-4-(2-((1-((1r,4r)-4-((2S,6R)-2,6-dimethylmorpholino)cyclohexyl)-3-((tetrahydro-2H-pyran-4-yl)methoxy)-1H-pyrazol-4-yl)amino)pyrimidin-5-yl)benzonitrile]	< 10 nM
